Measured values as given in patent US5972894A, “Peptides having potassium channel opener activity” (Cytran, Inc., priority 1997, dated 1999).
Residues, ends and D or L forms follow the SMILES beside them.

System: rats
Test: CPK activity in blood serum 1 hour after coronary occlusion
Assay type: in vivo
Details: for CPK Activity in blood serum: 1 hour after coronary occlusion
Description: White random-bred male rats weighing approximately 200 g were anesthetized using a light ether administration and then immobilized and artificially ventilated. […] Immediately after ligation, a test substance, positive, control substance, or negative control substance (described below) was administered to a rat through a catheterized femoral vein. Each dose of each test substance or positive or negative control substance was administered to an experimental or control group of 9 test rats. In this study, GE and VT served as test substances, propranolol served as the positive control substance, and physiological saline served as the negative control substance. Each test rat in an experimental group was given a dose of either 0.1, 1.0, or 10.0 milligram GE per kilogram of body weight of the subject animal (mg/kg) or 0.1, 1.0, or 10.0 milligram VT per kilogram of body weight of the animal. Each animal of the positive control group received an intravenous dose of 0.5 mg of β-adrenergic blocking agent, propranolol (Obzidan, Germed, Germany) per kilogram of body weight. Propranolol is commonly used to manage cardiac arrhythmia and there is some evidence that the agent may reduce the extent of ischemic damage to the heart. […] Each animal of the negative control group received physiological saline.
One hour after initiation of the coronary artery occlusion, each test animal was sacrificed, its blood was collected, and the CPK activity in its blood serum was measured. CPK activity was determined by using a standard biochemical method, such as that commercially available from the Lachema Company (Czechia) in its test kit, and by following the manufacturer's process instructions included in the package insert.
As a supplementary control for the possible trauma caused by the surgical procedure, a group of 9 sham-operated rats was included in the study. These test animals were subjected to chest dissection, but not to coronary artery occlusion. These "sham-operated" animals were not treated with any test or control substances and were euthanized 1 hour after surgery. Their blood was then collected for determination of CPK activity.

NCC(=O)N[C@@H](CCC(=O)O)C(=O)O [GE, L-Glycyl-L-Glutamic acid] (H-Gly-Glu-OH)
CPK Activity in blood serum (0.1 mg/kg i.v.): 0.062 (±0.013) mcCat/L | CPK Activity in blood serum (1.0 mg/kg i.v.): 0.056 (±0.014) mcCat/L | CPK Activity in blood serum (10.0 mg/kg i.v.): 0.110 (±0.024) mcCat/L | extent of induced myocardial ischemic lesions (CPK in serum vs negative control) (0.1, 1.0, and 10.0 milligram): diminish the extent of induced myocardial ischemic lesions
